Experimental data: patent US20240261306A1, “FORMULATIONS OF PSILOCYBIN” (CYBIN IRL LIMITED, priority 2021, published 2024)
Marks after values point to notes of the source that are not given here.

Columns and labels:
[1] = XRPD of freeze-dried solid dispersions and admixtures; type: physicochemical; settings: as prepared, solid form of psilocybin (PY) in freeze-dried dispersion, physical mixture or starting material
Description: The samples were prepared in silicon low background holders using light manual pressure to keep the sample surface flat and level with the reference surface of the sample holder. The single crystal Si low background holder has a circular recess (10 mm diameter and about 0.2 mm depth) that holds the sample.
The Rigaku Smart-Lab diffraction system used was configured for Bragg-Brentano reflection geometry using a line source X-ray beam. The Bragg-Brentano geometry was controlled by passive divergence and receiving slits with the sample itself acting as the focusing component for the optics. The figures were created using PlotMon V2.1.1.0.
High-resolution XRPD analysis was performed using Rigaku Smart-Lab diffraction system configured for Debye-Scherrer transmission geometry. The Debye-Scherrer convergent beam geometry utilizes a curved x-ray mirror to focus the incident beam through the sample and onto the detector plane. The axial divergence of the X-ray beam was controlled by 5.0° Soller slits in both the incident and diffracted beam paths.
Freeze-dried solid dispersions of Examples 1-5, and corresponding Reference Examples, were characterized using X-ray powder diffraction (XRPD).

[2] = XRPD and mDSC characterization of spray dried solid dispersions (t=0); type: physicochemical; settings: Characterization (t = 0)
Description: X-ray power diffraction (XRPD): XRPD patterns were collected on a Bruker AXS D2 diffractometer using Cu Kα radiation (30 kV, 10 mA), θ-θ geometry, using a LynxEye detector from 5-42° […].
The details of the data collection are: • Angular range: 5 to 42° 2θ • Step size: 0.024° 2θ • Collection time: 0.1 seconds per step.
Samples were run under ambient conditions and prepared as flat plate specimens using powder without grinding. Approximately 1-2 mg of the sample was lightly pressed on a silicon wafer to obtain a flat surface.
Modulated differential scanning calorimetry (mDSC): TOPEM® is a temperature modulated DSC method which differs from conventional DSC in allowing the total heat flow to be separated into reversing and non-reversing heat flow components. Such techniques help distinguish between processes or transitions that overlap or lie very close to one another. The glass transition temperature (Tg) was determined from the reversible heatflow component.
TOPEM® DSC data were collected on a Mettler DSC 3+ equipped with a 34 position auto-sampler. The instrument was calibrated for energy and temperature using certified indium. Typically, 3-5 mg of each sample, in a pin-holed aluminium pan, was heated at 2 K·min^−1 from 30° C. to 220° C. with a pulse height of 0.64 K and a pulse width 15-30 sec. A nitrogen purge at 50 mL·min^−1 was maintained over the sample. […]

Compound | XRPD Results [1] | XRPD Results ([1]; listed as crystalline psilocybin starting material) | XRPD [2] | Tg ([2]; mDSC)
CN(C)CCc1c[nH]c2cccc(OP(=O)(O)O)c12 [Crystalline PY starting material, 3-(2-(dimethylamino)ethyl)-1H-indol-4-yl dihydrogen phosphate] | crystalline PY (methanol solvate)^a | crystalline psilocybin methanol solvate with a small quantity of Form B |  | 
CN(C)CCc1c[nH]c2cccc(OP(=O)(O)O)c12 [Psilocybin (PY), 3-(2-(dimethylamino)ethyl)-1H-indol-4-yl dihydrogen phosphate] |  |  | Amorphous | 161 °C
